Source: BigSolDB 2.1

CO/N=C(\C(=O)N[C@@H]1C(=O)N2C(C(=O)O)=C(CSc3nnnn3C)CS[C@H]12)c1csc(N)n1.CO/N=C(\C(=O)N[C@@H]1C(=O)N2C(C(=O)O)=C(CSc3nnnn3C)CS[C@H]12)c1csc(N)n1.Cl
solubility (mole fraction)
Details | 283.15 K | 288.15 K | 293.15 K | 298.15 K | 303.15 K | 308.15 K | 313.15 K
in ethanol | 2.61e-05 | 2.83e-05 | 3.03e-05 | 3.17e-05 | 3.8e-05 | 4.01e-05 | 4.68e-05
in methanol | 0.000186 | 0.000196 | 0.000213 | 0.000235 | 0.000253 | 0.000275 | 0.000303
in water | 3.26e-05 | 3.59e-05 | 4.23e-05 | 4.76e-05 | 5.29e-05 | 5.88e-05 | 6.65e-05
